Like-named read-outs stand apart in the source and are kept apart here.
Key:
Experiment in all cases: frontal affinity chromatography (FAC)
[1] = target: T1, Con-anc (probable ancestral form of congerins); assay type: binding, synthetic construct; conditions: labelled compound (pyridylaminated sugar)
T1 construct: recombinant from plasmid pTV-Con-anc in Escherichia coli JM109; differs from ConI at 31 residues; purified by HCl-treated Sepharose 4B and HiTrap Q
From the text: frontal affinity chromatography (FAC) on Con-anc (probable ancestral form of congerins)

congerin II (ConII) = target: T2, congerin II (ConII) (Conger myriaster, UniProt Q9YIC2); assay type: binding
T2 construct: full length, 135 residues (natural form N-acetylated); proto-type galectin, dimer
From the text: frontal affinity chromatography (FAC) on congerin II (ConII)

congerin I (ConI) = target: T3, congerin I (ConI) (Conger myriaster, UniProt P26788); assay type: binding
T3 construct: full length, 136 residues (natural form N-acetylated); proto-type galectin, dimer
From the text: frontal affinity chromatography (FAC) on congerin I (ConI)

[2] = labelled compound (pyridylaminated sugar)

T2 sequence (Q9YIC2 2-136): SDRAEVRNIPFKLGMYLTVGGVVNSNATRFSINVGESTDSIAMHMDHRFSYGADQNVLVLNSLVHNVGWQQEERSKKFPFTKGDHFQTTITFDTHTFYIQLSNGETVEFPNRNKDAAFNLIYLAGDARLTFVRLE
T3 sequence (P26788 whole entry): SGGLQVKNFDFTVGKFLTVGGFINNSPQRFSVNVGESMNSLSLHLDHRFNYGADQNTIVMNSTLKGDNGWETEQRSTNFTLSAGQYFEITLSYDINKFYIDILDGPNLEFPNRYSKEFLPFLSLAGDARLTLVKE

Compound	Kd [1] [µM]	Kd (congerin II (ConII); [2]) [µM]	Kd (congerin I (ConI)) [µM]	Kd (congerin II (ConII)) [µM]	Kd ([1]; read-out: Con-anc-L5 / Kd) [µM]	Kd ([1]; read-out: Con-anc-N/C/L5 / Kd) [µM]	Kd (congerin I (ConI); [2]) [µM]
CC(=O)N[C@H]1[C@H]([C@H](O)[C@H](O)CO)OC(O[C@H]2[C@@H](O)[C@@H](CO)O[C@@H](O[C@@H]([C@H](O)[C@@H](O)CNc3ccccn3)[C@H](O)CO)[C@@H]2O)(C(=O)O)C[C@@H]1O (stereo partly drawn) [compound 29]	242	51					
CC(=O)N[C@H]1[C@H](O[C@H]2[C@@H](O)[C@@H](CO)O[C@@H](O[C@@H]([C@H](O)[C@@H](O)CNc3ccccn3)[C@H](O)CO)[C@@H]2O)O[C@H](CO)[C@@H](O[C@@H]2O[C@@H](C)[C@@H](O)[C@@H](O)[C@@H]2O)[C@@H]1O[C@@H]1O[C@H](CO)[C@H](O)[C@H](O)[C@H]1O[C@@H]1O[C@@H](C)[C@@H](O)[C@@H](O)[C@@H]1O [compound 46]	44		9.4	37			
CC(=O)N[C@H]1[C@H](O[C@H]2[C@@H](O)[C@@H](CO)O[C@@H](O[C@@H]([C@H](O)[C@@H](O)CNc3ccccn3)[C@H](O)CO)[C@@H]2O)O[C@H](CO)[C@@H](O[C@@H]2O[C@H](CO)[C@H](O)[C@H](O)[C@H]2O)[C@@H]1O[C@@H]1O[C@@H](C)[C@@H](O)[C@@H](O)[C@@H]1O [compound 45, LNFP-III]	171		13	122			

The next lines start with the values.

Kd [1] [µM]	Kd (congerin II (ConII); [2]) [µM]	Kd (congerin I (ConI)) [µM]	Kd (congerin II (ConII)) [µM]	Kd ([1]; read-out: Con-anc-L5 / Kd) [µM]	Kd ([1]; read-out: Con-anc-N/C/L5 / Kd) [µM]	Kd (congerin I (ConI); [2]) [µM]	Compound
196	66						GM3 (NeuGc) [compound 30]
55		4.4	24	3.9			CC(=O)N[C@H]1[C@H](O[C@H]2[C@@H](O)[C@@H](CO)O[C@@H](O[C@@H]([C@H](O)[C@@H](O)CNc3ccccn3)[C@H](O)CO)[C@@H]2O)O[C@H](CO)[C@@H](O[C@@H]2O[C@@H](C)[C@@H](O)[C@@H](O)[C@@H]2O)[C@@H]1O[C@@H]1O[C@H](CO)[C@H](O)[C@H](O)[C@H]1O [compound 44]
56	42				2.5	17	A-heptasaccharide [compound 48]
